Measurements published in patent US9364462B2, “Alpha-1-adrenergic receptor agonist therapy” (The Regents of the University of California, priority 2012, dated 2016).

System: neonatal rat cardiac muscle cells
Test: Protein synthesis in neonatal rat cardiac muscle cells in vitro
Assay type: cell-based
Conditions: FIG. 2 (neonatal rat) and FIG. 20
Excerpt: FIG. 2. A61603 is adaptive in neonatal cardiac muscle cells.
FIG. 20. A61603 is adaptive in cardiac muscle cells.

For `CS(=O)(=O)Nc1c(O)ccc2c1CCCC2C1=NCCN1` (stereo not shown) [A61603, N-[1-(4,5-dihydro-1H-imidazol-2-yl)-6-hydroxy-tetralin-5-yl]methanesulfonamide], the “activation of protein synthesis” value was “high efficacy and potency”.
